Measurements published in patent US20020026053A1, “Novel 3-(substituted) -2- indolinones compounds and use thereof as inhibitors of protein kinase activity” (priority 1997, published 2002).

System: PDGF-R
Experiment: PDGF-R Assay (cellular ELISA, U1242 cells)
Format: cell-based
Set-up: concentration or dose not given beside the values
Conditions: protocol P.119
Procedure, shortened: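 U1242 cells seeded in 0.5% serum, serum-starved, then exposed to compound for 2 hr at 37°C before 5–10 min ligand stimulation and lysis in HNTG. Lysate captured on receptor-antibody-coated plates; phosphotyrosine detected with polyclonal anti-pTyr, goat anti-rabbit IgG and ABTS/H2O2, A410 (ref 630 nm), versus untreated cells.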

Point of comparison: `Cc1c(Br)cc(Br)c2c1C(=Cc1ccc(Oc3ccccc3)cc1)C(=O)N2` [10737/H09], “PDGF Kinase % Inhibition (P.119)” value −11.7%. Against it:
- Cc1ccc(C)c(C=C2C(=O)Nc3c(Br)cc(Br)c(C)c32)c1 [10737/H07] — lower, −17.7%
- Cc1c(Br)cc(Br)c2c1C(=Cc1ccc3ccccc3c1)C(=O)N2 [10737/H08] — lower, −26.9%
- Cc1c(Br)cc(Br)c2c1C(=Cc1cccc(Oc3ccc(C(C)(C)C)cc3)c1)C(=O)N2 [10737/H10] — lower, −12.9%
- Cc1c(Br)cc(Br)c2c1C(=Cc1cccc(Oc3cccc(C(F)(F)F)c3)c1)C(=O)N2 [10737/H11] — lower, −16.5%
